From patent publication EP4692094A1 (Beijing Konruns Pharmaceutical Co., Ltd., priority 2023, dated 2024)

Legend:
KAT6A = biological target: T1, KAT6A (Homo sapiens, UniProt Q92794); test: Enzymatic activity assay for KAT6A acetyltransferase (TR-FRET, acetylation of histone substrate H3); format: biochemical
T1 construct: purchased active motife (Active Motif) 81223
Method in brief: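 TR-FRET detection of biotinylated H3 acetylation by KAT6A with acetyl-CoA; compounds in 10-point 3-fold dilution (0.5% DMSO final) preincubated with enzyme 10 min at 25 °C, then 90 min reaction and 60 min Eu-antibody/ULight-SA detection at 25 °C. HTRF 665/615 ratio normalised to DMSO (0%) and top-dose control (100%); IC50 by nonlinear fit.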

[1] = In-vivo pharmacokinetic study in rats; parameters: species or system SD female rats; conditions: rat, plasma, po, intragastric administration, 5 mg/kg
Method: 1.1 Instrument: high-performance liquid chromatograph: SHIMADZU LC-30AD; mass spectrum: AB SCIEX mass spectrometer Triple Quad 5500; all measured data were calculated and processed using Microsoft Excel, and relevant pharmacokinetic parameters were calculated using WinNonlin software. The main obtained kinetic parameters are Tmax, T1/2, Cmax, AUC0-24 h, and AUCinf. […] Sample injection amount: 1 µL.
1.2 Animals: three SD female rats were used. The body weight range was 180-300 g. After purchase, the rats were bred in the experimental animal center for two days for later use. The rats were fasted 12 h before administration and 4 h after administration, and given ad libitum access to water during the assay. Blood samples were taken at predetermined time points after intragastric administration.
1.3 Vehicle: 0.5% HPMC (hydroxypropyl methylcellulose) + 0.4% Tween80 + 99.1% water. Preparation of intragastric administration solution: The compound was precisely weighed, the vehicle was added, and then the drug was completely dissolved by ultrasonication at room temperature for 5 min and prepared into a 0.5 mg/mL solution. After the intragastric administration, blood samples were taken at 0.083 h, 0.25 h, 0.5 h, 1.0 h, 2.0 h, 4.0 h, 7.0 h, and 24 h. The blood collection mode is as follows: 0.2 mL of the jugular vein blood was collected, EDTA-K2 was used as an anticoagulation agent, the collected blood sample was transferred into a microcentrifuge tube containing the anticoagulation agent, and the tube was centrifuged at 4 °C and 4000 g for 5 min to separate the plasma. All plasma samples collected were stored at -75±15 °C until analysis.
The compound was precisely weighed and prepared into a standard curve working solution and a quality control working solution at different concentrations. The blank plasma was added and prepared into a plasma standard curve and a quality control sample. LC/MS/MS analysis was performed after pretreatment using a protein precipitation method, and then the concentration of the compounds described above in the plasma was measured. All measured data were collected and processed by the relevant software, and pharmacokinetic parameters were calculated using Winnonlin software. Table 9. Pharmacokinetic parameters of some compounds in the examples in rats

hERG channel = biological target: T2, hERG channel (Homo sapiens, UniProt Q12809); test: hERG channel assay (manual patch clamp); format: cell-based; conditions: HEK-293 cell line stably expressing the hERG channel, room temperature
T2 construct: expressed in transfected cells; host or cells: HEK-293
T2 sequence (Q12809 whole entry): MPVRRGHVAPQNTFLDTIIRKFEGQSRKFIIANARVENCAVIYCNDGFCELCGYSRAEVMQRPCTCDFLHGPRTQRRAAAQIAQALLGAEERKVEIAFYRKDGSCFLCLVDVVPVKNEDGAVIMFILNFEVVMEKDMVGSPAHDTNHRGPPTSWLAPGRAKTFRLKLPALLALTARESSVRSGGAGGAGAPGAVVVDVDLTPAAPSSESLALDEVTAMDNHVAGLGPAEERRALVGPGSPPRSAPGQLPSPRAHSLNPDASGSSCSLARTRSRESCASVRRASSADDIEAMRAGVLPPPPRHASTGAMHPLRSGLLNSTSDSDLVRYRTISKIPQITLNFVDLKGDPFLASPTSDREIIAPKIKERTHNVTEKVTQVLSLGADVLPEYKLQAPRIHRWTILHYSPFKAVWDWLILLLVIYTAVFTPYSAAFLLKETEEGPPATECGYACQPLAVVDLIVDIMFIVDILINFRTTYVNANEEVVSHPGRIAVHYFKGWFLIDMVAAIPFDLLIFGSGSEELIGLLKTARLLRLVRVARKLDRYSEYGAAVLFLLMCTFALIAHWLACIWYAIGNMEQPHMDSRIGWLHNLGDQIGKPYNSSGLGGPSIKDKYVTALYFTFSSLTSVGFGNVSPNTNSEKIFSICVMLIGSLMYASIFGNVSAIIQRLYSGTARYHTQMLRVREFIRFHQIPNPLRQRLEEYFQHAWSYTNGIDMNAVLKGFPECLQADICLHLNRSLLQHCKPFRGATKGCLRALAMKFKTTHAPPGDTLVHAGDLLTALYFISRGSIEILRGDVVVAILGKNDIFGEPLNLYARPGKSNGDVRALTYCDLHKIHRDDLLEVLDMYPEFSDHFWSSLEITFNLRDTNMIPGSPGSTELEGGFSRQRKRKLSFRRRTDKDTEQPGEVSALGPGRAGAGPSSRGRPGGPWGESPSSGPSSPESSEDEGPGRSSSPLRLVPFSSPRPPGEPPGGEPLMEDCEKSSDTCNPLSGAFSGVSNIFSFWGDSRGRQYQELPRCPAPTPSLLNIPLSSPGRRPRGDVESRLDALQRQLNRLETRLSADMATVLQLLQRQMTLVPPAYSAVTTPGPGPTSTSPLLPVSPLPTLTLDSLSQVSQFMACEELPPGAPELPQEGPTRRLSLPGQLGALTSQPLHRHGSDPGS
Method: 1.1 Test methods: This experiment adopted a manual patch clamp technology to detect the blocking effect of the compounds on electric current in the HEK-293 cell line stably expressing the hERG channel, and the risk of the compounds on the inhibitory effect on the cardiac hERG potassium channel was evaluated by fitting a concentration-effect relationship.
1.2 Experimental procedures: The patch clamp operation was performed as follows: Firstly, a capillary glass tube was drawn into a recording electrode with a microelectrode drawing instrument. An electrode filled with the intracellular fluid was mounted on the microelectrode holder. Under an inverted microscope, a microelectrode manipulator was used to immerse the electrode in the extracellular fluid, and the electrode resistance (Rpip) was recorded. The electrode was then slowly brought into contact with the cell surface, and negative pressure was applied to form a GΩ seal. At this time, fast capacitance compensation was performed, and the application of negative pressure was continued to break the cell membrane, forming a whole-cell recording mode. Finally, slow capacitance compensation was performed, and experimental parameters such as series resistance (Rs) were recorded. No current leakage compensation was provided. Administration was started when the hERG current of the whole-cell record was stable. Each drug concentration was maintained for about 5 min (or until the current was stable) for action before the next concentration was measured. Multiple concentrations were measured for each test compound. The coverslip with cells applied thereon was placed in the recording chamber under the inverted microscope. Gravity perfusion was used to flow the blank control extracellular fluid and the working solutions of the test compounds sequentially from low to high concentrations over the cells in the recording chamber. A peristaltic pump was used for liquid exchange during recording. For each cell, the current detected in the compound-free extracellular fluid was used as its own control group. The test was independently repeated three times for each concentration. All electrophysiological experiments were performed at room temperature.
Data processing: First, the tail current (Peak tail currentcompound) after the action of each drug concentration was standardized with the tail current of the blank control (Peak tail currentcontrol), and then the inhibition rate corresponding to each drug concentration was calculated ( 1−(Peak tail currentcompound)/(Peak tail currentcontrol) [formula] ). Subsequently, the mean, standard deviation (SD), and standard error (SE) were calculated for the inhibition rate corresponding to each concentration. The data were represented by Mean ± SE. IC50 value calculation of the compounds and dose-effect curve fitting were performed using the GraphPad Prism software. The data obtained are shown in Table 12: Table 12. hERG channel assay results

T1 sequence (Q92794 whole entry): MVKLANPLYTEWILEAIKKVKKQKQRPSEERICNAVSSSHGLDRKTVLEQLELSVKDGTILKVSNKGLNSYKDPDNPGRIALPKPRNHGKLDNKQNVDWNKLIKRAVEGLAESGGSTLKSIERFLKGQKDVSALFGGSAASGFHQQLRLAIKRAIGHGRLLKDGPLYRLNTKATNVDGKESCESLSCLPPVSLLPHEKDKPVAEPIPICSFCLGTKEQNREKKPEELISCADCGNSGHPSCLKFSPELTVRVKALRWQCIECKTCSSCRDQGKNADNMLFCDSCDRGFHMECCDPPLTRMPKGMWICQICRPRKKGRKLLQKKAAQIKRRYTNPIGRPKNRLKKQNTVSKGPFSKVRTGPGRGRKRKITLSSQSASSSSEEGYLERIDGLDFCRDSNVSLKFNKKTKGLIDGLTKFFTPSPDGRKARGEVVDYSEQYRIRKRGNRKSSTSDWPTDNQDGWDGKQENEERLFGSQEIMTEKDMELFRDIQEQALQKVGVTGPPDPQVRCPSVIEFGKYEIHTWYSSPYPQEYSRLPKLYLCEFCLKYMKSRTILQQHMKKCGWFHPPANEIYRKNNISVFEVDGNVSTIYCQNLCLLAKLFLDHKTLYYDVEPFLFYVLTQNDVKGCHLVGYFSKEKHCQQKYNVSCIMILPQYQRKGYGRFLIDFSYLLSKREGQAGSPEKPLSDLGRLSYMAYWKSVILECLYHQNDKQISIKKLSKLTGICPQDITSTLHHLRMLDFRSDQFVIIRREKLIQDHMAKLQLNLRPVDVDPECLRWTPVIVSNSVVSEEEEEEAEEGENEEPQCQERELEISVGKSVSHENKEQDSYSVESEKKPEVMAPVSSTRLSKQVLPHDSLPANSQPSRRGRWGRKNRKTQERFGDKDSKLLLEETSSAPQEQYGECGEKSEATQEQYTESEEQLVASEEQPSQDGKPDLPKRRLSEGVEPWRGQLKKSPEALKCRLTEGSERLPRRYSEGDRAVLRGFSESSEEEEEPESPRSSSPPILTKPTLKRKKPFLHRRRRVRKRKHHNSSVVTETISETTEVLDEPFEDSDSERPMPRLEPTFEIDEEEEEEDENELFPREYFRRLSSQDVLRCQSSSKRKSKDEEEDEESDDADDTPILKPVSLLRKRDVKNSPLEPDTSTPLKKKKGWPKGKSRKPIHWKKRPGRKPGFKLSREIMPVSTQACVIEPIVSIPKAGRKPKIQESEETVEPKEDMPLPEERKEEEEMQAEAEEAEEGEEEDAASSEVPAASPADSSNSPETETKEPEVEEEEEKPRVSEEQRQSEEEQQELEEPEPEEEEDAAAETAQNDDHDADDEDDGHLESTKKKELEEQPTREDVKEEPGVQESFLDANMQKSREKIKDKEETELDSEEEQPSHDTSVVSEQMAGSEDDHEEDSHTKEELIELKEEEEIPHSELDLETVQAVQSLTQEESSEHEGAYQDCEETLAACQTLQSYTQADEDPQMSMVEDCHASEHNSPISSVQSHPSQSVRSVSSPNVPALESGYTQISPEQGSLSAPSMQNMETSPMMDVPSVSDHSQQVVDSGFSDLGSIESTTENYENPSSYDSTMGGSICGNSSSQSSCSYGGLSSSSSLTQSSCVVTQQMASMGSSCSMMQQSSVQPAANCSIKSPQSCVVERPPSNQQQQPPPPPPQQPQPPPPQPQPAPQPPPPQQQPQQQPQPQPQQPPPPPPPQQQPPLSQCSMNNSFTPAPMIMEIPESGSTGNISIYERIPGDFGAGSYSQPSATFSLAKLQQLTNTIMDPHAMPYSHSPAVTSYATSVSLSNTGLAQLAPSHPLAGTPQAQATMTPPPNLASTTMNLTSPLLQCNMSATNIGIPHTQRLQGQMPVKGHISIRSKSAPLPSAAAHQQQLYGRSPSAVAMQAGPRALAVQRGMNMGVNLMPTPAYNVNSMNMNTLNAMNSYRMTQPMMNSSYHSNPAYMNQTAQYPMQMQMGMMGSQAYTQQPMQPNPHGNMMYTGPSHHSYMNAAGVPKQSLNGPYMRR

Structure (SMILES) | IC50 (KAT6A) | AUC(0-inf) [1] | Cmax [1] | Tmax [1] | AUC(0-t) at 24 h ([1]; read-out: AUC0-24h) | half-life ([1]; female, SD) | AUC(0-inf) ([1]; female, SD) | Cmax ([1]; female, SD) | Tmax ([1]; female, SD) | AUC(0-t) ([1]; female, SD, read-out: AUC0-24h) | IC50 (hERG channel)
COc1cc2c(cc1S(=O)(=O)Nc1noc3cc(Cn4cccn4)nc(OC)c13)CCCO2 [Example 76, N-(6-((1H-Pyrazol-1-yl)methyl)-4-methoxyisoxazolo[4,5-c]pyridin-3-yl)-7-methoxy-3,4-dihydro-1H-benzopyran-6-sulfonamide] | 1.05 nM | 162000 ng·h/mL | 14400 ng/mL | 2.33 h | 158000 ng·h/mL |  |  |  |  |  | 
COc1nc(Cn2cccn2)cc2onc(NS(=O)(=O)c3cccc4ccoc34)c12 [Example 5, N-(6-((1H-Pyrazol-1-yl)methyl)-4-methoxyisoxazolo[4,5-c]pyridin-3-yl)benzofuran-7-sulfonamide] | 4.52 nM |  |  |  |  | ≤ 10 h | 19700 ng·h/mL | 5960 ng/mL | 0.25 h | 18500 ng·h/mL | > 30000 nM
COc1ccc2c(c1S(=O)(=O)Nc1noc3cc(Cn4cccn4)nc(OC)c13)OCC2 [Example 9, N-(6-((1H-Pyrazol-1-yl)methyl)-4-methoxyisoxazolo[4,5-c]pyridin-3-yl)-6-methoxy-2,3-dihydrobenzofuran-7-sulfonamide] | 0.92 nM |  |  |  |  |  | 215000 ng·h/mL | 22500 ng/mL | 1.83 h | 215000 ng·h/mL | > 30000 nM
COc1cc2c(cc1S(=O)(=O)Nc1noc3cc(Cn4cccn4)nc(OC)c13)OCC2 [Example 59, N-(6-((1H-Pyrazol-1-yl)methyl)-4-methoxyisoxazolo[4,5-c]pyridin-3-yl)-5-methoxy-2,3-dihydrobenzofuran-6-sulfonamide] | 0.95 nM |  |  |  |  |  | 167000 ng·h/mL | 16500 ng/mL | 1.17 h | 166000 ng·h/mL | > 30000 nM
COc1nc(Cn2cccn2)cc2onc(NS(=O)(=O)c3cccc4c3OCCO4)c12 [Example 4, N-(6-((1H-Pyrazol-1-yl)methyl)-4-methoxyisoxazolo[4,5-c]pyridin-3-yl)-2,3-dihydrobenzo[b][1,4]dioxine-5-sulfonamide] | 1.51 nM |  |  |  |  |  | 12000 ng·h/mL | 5960 ng/mL | 0.25 h | 11800 ng·h/mL | > 30000 nM
COc1ccc2ccoc2c1S(=O)(=O)Nc1noc2cc(Cn3cccn3)nc(OC)c12 [Example 10, N-(6-((1H-Pyrazol-1-yl)methyl)-4-methoxyisoxazolo[4,5-c]pyridin-3-yl)-6-methoxybenzofuran-7-sulfonamide] | 0.38 nM |  |  |  |  |  | 74300 ng·h/mL | 10500 ng/mL | 0.5 h | 72300 ng·h/mL | > 30000 nM
COc1cc2c(cc1S(=O)(=O)Nc1noc3cc(Cn4cccn4)nc(OC)c13)CCCC2 [Example 2, N-(6-((1H-Pyrazol-1-yl)methyl)-4-methoxyisoxazolo[4,5-c]pyridin-3-yl)-3-methoxy-5,6,7,8-tetrahydronaphthalene-2-sulfonamide] | 0.72 nM |  |  |  |  | ≤ 10 h | 71500 ng·h/mL | 4410 ng/mL | 6 h | 64800 ng·h/mL | > 30000 nM
